The values that follow are results of earlier work, collected in US20130331260A1, “Odour-Control Superabsorbent” (BASF SE, priority 2012, published 2013).

The test system of series [1] is seed germination in urea-based fertiliser.

For the compound `NP(N)(=O)NC(=O)c1ccc(F)cc1` [fluorofamide, N-[Diaminophosphinyl]-4-fluorobenzamide], in series [1], the “effect on seed germination compared with non-fluorinated analogue” value was “worked better than its non-fluorinated analogue in most cases”. In addition, the antibacterial properties entry in the series with Helicobacter sp. is given as “no measurable antibacterial properties”.
